Laboratory results from patent US20240366598A1, “GLUCOSE-DEPENDENT INSULINOTROPIC POLYPEPTIDE RECEPTOR ANTAGONISTS AND USES THEREOF” (Pfizer Inc., priority 2023, published 2024).

Molecular target: T1, human Glucose-dependent Insulinotropic Polypeptide Receptor (hGIPR) (Homo sapiens, UniProt P48546)
T1 sequence (P48546 22-466): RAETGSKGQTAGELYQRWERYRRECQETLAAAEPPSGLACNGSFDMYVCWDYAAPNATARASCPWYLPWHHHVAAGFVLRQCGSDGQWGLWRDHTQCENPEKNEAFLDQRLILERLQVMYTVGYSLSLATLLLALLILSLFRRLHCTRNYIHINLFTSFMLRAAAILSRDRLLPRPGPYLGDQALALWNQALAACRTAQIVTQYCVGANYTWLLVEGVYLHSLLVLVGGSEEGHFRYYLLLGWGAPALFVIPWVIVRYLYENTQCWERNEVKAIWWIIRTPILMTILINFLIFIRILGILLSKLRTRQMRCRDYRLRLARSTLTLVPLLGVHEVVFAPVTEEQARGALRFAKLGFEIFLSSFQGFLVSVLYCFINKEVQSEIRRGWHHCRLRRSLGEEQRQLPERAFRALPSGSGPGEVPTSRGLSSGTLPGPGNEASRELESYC
Assay: Functional in vitro GIPR antagonist potency assay (cAMP HTRF, CHO-K1 cells stably expressing hGIPR, hGIP stimulation at about EC80)
Format: cell-based
Conditions: geometric mean, hGIP at estimated EC80, examples marked ^2: overall geometric mean of multiple forms (including salts) tested
Description: Example AA. Functional In Vitro GIPR Antagonist Potency Assay
The functional in vitro antagonist potency for test compounds was determined by monitoring intracellular cyclic adenosine monophosphate (cAMP) levels in Chinese hamster ovary (CHO)—K1 cells stably expressing the human Glucose-dependent Insulinotropic Polypeptide Receptor (hGIPR). Following agonist activation, hGIPR associates with the G-protein complex causing the Gαs subunit to exchange bound guanosine diphosphate (GDP) for guanosine triphosphate (GTP), followed by dissociation of the Gαs-GTP complex. The activated Gas subunit can couple to downstream effectors to regulate the levels of second messengers or cAMP within the cell. Thereby, determination of intracellular cAMP levels allows for pharmacological characterization. Intracellular cAMP levels are quantitated using a homogenous assay utilizing the Homogeneous Time Resolved Fluorescence (HTRF) technology from Perkin Elmer. […] The two entities compete for binding to a monoclonal anti-cAMP antibody labeled with cryptate. The specific signal is inversely proportional to the concentration of cAMP in the cells.
Test compounds were solubilized to a concentration of 30 mM in 100% dimethyl sulfoxide (DMSO). An 11-point dilution series using 1 in 3.162-fold serial dilutions was created in 100% DMSO with a top concentration of 8 mM. The serially diluted compound was spotted with an Echo Acoustic liquid handler (Beckman Coulter) into a 384-well assay plate (Corning, Cat No. 3824) at 50 nL/well with duplicate points at each concentration, at a 200× final assay concentration (FAC). The final compound concentration range in the assay was 40 μM to […], with a final DMSO concentration of 0.5%.
Frozen assay-ready vials (at 1×10^7 cells/vial) of CHO-K1 cells stably expressing the Gs-coupled human GIPR receptor (Eurofins, DiscoverX, Cat No. 95-0146C2) were thawed, counted, and resuspended in assay buffer consisting of Hank's Balanced Salt Solution (HBSS, Lonza Cat No. 10-527) containing 20 mM (4-(2-hydroxyethyl)-1-piperazineethanesulfonic acid (HEPES, Lonza, Cat No. 17-737E), 0.1% bovine serum albumin (BSA, Sigma, Cat No. A7979), and 200 μM 3-isobutyl-1-methylxanthine (IBMX, Sigma, Cat No. 15879) at a density of 4×10^5 cells/mL. Cells were added to assay plate (5 μL/well of 4×10^5 cells/mL stock for 2,000 cells/well final) containing 50 nL of 200× FAC test compound, and incubated at 37° C. (95% O2: 5% CO2) for 2 hours, with micro-clime lids (Labcyte, Cat No. LLS-0310). Following the 2-hour cell and compound incubation, a stimulation mix comprised of hGIPR agonist human glucose-dependent insulinotropic polypeptide (hGIP, full length, Sigma Cat No. G2269) in assay buffer/0.1% DMSO was added to the assay plate (5 μL/well) at an estimated EC80 FAC (based on previous hGIP agonist curves) and incubated for another 30 minutes with micro-clime lids at 37° C. (95% O2: 5% CO2), after which intracellular cAMP levels were quantified as per Perkin Elmer's protocol (5 μL of d2 and then 5 μL cryptate, incubated for 1 hour at room temperature). Emission spectra of samples were measured on a Pherastar plate reader (BMG Labtech Inc) using a HTRF protocol (excitation, 320 nm; emission, 665 nm/620 nm).
(95% O2: 5% CO2), with a micro-clime lid. Following the 2-hour cell and DMSO incubation, a hGIP concentration response curve at 2× FAC (12-point curve using 1 in 3 serial dilutions, with triplicate points at each concentration, 100 nM final top concentration) in assay buffer/1% DMSO was added (5 μL/well) and incubated for a further 30 minutes with a micro-clime lid at 37° C. (95% O2: 5% CO2), after which intracellular cAMP levels were quantified and samples measured as described previously. Experiments passed quality control if the agonist concentration used for stimulation fell between the on-the-day EC50-EC90. […]

| IC50 [nM] | SMILES |
| --- | --- |
| 10 | CC(C)c1ccc(NC(=O)N2CCC[C@@H]2C(=O)Nc2ccc(-c3ccc(C(=O)O)c(F)c3)cc2)cc1 [Example 28, 3-Fluoro-4′-[(1-{[4-(propan-2-yl)phenyl]carbamoyl}-D-prolyl)amino][1,1′-biphenyl]-4-carboxylic acid] |
| 17 | COc1cc(C(=O)O)ccc1-c1ccc(NC(=O)[C@H]2CCCN2C(=O)Nc2ccc(C(C)C)cc2)cc1 [Example 29, 2-Methoxy-4′-[(1-{[4-(propan-2-yl)phenyl]carbamoyl}-D-prolyl)amino][1,1′-biphenyl]-4-carboxylic acid] |
| 5.7 | COc1cc(-c2ccc(NC(=O)[C@H]3CCCN3C(=O)Nc3ccc(C(C)C)c(C)c3)cc2)ccc1C(=O)O [Example 30, 3-Methoxy-4′-[(1-{[3-methyl-4-(propan-2-yl)phenyl]carbamoyl}-D-prolyl)amino][1,1′-biphenyl]-4-carboxylic acid] |
| 6.1 | COc1cc(-c2ccc(NC(=O)[C@H]3CCCN3C(=O)Nc3ccc(C(C)C)c(F)c3)cc2)ccc1C(=O)O [Example 32, 4′-[(1-{[3-Fluoro-4-(propan-2-yl)phenyl]carbamoyl}-D-prolyl)amino]-3-methoxy[1,1′-biphenyl]-4-carboxylic acid] |
| 6.3 | CC(C)c1ccc(NC(=O)N2CCC[C@@H]2C(=O)Nc2cnc(-c3ccc(C(=O)O)cc3)c(F)c2)cc1 [Example 33, 4-{3-Fluoro-5-[(1-{[4-(propan-2-yl)phenyl]carbamoyl}-D-prolyl)amino]pyridin-2-yl}benzoic acid] |
| 46 | CO[C@@H]1C[C@H](C(=O)Nc2ccc(-c3ccc(C(=O)O)cc3)cc2)N(C(=O)Nc2ccc(C(C)C)cc2)C1 [Example 36, 4′-{[(4R)-4-Methoxy-1-{[4-(propan-2-yl)phenyl]carbamoyl}-D-prolyl]amino}[1,1′-biphenyl]-4-carboxylic acid] |
| 58 | CC(C)c1ccc([C@H](C)NC(=O)N2CCC[C@@H]2C(=O)Nc2ccc(-c3ccc(C(=O)O)cc3)cc2)cc1 [Example 37, 4′-{[1-({(1S)-1-[4-(Propan-2-yl)phenyl]ethyl}carbamoyl)-D-prolyl]amino}[1,1′-biphenyl]-4-carboxylic acid] |
| 17 | O=C(O)c1cccc(-c2ccc(NC(=O)[C@H]3CCCN3C(=O)Nc3ccc(C4CCC4)cc3)nc2)c1 [Example 38, 3-[6-({1-[(4-Cyclobutylphenyl)carbamoyl]-D-prolyl}amino)pyridin-3-yl]benzoic acid] |
| 3.7 | Cc1cc(NC(=O)N2CCC[C@@H]2C(=O)Nc2ccc(-c3ccc(C(=O)O)cc3)cc2)ccc1C(C)C [Example 39, ammonium 4′-[(1-{[3-methyl-4-(propan-2-yl)phenyl]carbamoyl}-D-prolyl)amino][1,1′-biphenyl]-4-carboxylate] |
| 7.3 | Cc1cc(-c2ccc(NC(=O)[C@H]3CCCN3C(=O)Nc3ccc(C(C)C)cc3)cc2)ccc1C(=O)O [Example 40, 3-methyl-4′-[(1-{[4-(propan-2-yl)phenyl]carbamoyl}-D-prolyl)amino][1,1′-biphenyl]-4-carboxylic acid] |
| 15 | O=C(O)c1ccc(-c2ccc(NC(=O)[C@H]3CCCN3C(=O)Nc3ccc(C4(C(F)(F)F)CC4)cc3)cc2)cc1 [Example 42, ammonium 4′-{[1-({4-[1-(trifluoromethyl)cyclopropyl]phenyl}carbamoyl)-D-prolyl]amino}[1,1′-biphenyl]-4-carboxylate] |
| 49 | Cc1cc(NC(=O)N2CCC[C@@H]2C(=O)Nc2ccc(-c3ccc(C(=O)O)cc3)cc2)ccc1Cl [Example 43, ammonium 4′-({1-[(4-chloro-3-methylphenyl)carbamoyl]-D-prolyl}amino)[1,1′-biphenyl]-4-carboxylate] |
| 540 | CC(C)c1ccc(NC(=O)N2CCC[C@@H]2C(=O)Nc2ccc(-c3cc(C(=O)O)c(F)cc3F)cc2)cc1 [Example 45, 4,6-difluoro-4′-[(1-{[4-(propan-2-yl)phenyl]carbamoyl}-D-prolyl)amino][1,1′-biphenyl]-3-carboxylic acid] |
| 160 | CC(C)c1ccc(NC(=O)N2CCC[C@@H]2C(=O)Nc2ccc(-c3ccc(O)cc3)cc2)cc1 [Example 46, (2R)-N^2-(4′-hydroxy[1,1′-biphenyl]-4-yl)-N^1-[4-(propan-2-yl)phenyl]pyrrolidine-1,2-dicarboxamide] |
| 47 | CC(C)c1ccc(NC(=O)N2CCC[C@@H]2C(=O)Nc2ccc(-c3cc(F)c(O)cc3F)cc2)cc1 [Example 47, (2R)-N^2-(2′,5′-difluoro-4′-hydroxy[1,1′-biphenyl]-4-yl)-N^1-[4-(propan-2-yl)phenyl]pyrrolidine-1,2-dicarboxamide] |
| 23 | CC(C)c1ccc(NC(=O)N2CCC[C@@H]2C(=O)Nc2ccc(-c3c(F)cc(C(=O)O)cc3F)cc2)cc1 [Example 48, 2,6-difluoro-4′-[(1-{[4-(propan-2-yl)phenyl]carbamoyl}-D-prolyl)amino][1,1′-biphenyl]-4-carboxylic acid] |
| 14 | CC(C)c1ccc(NC(=O)N2CCC[C@@H]2C(=O)Nc2ccc(-c3ccc(C(=O)O)cc3C(F)(F)F)cc2)cc1 [Example 49, 4′-[(1-{[4-(propan-2-yl)phenyl]carbamoyl}-D-prolyl)amino]-2-(trifluoromethyl)[1,1′-biphenyl]-4-carboxylic acid] |
| 83 | Cc1cc(C(=O)O)cc(-c2ccc(NC(=O)[C@H]3CCCN3C(=O)Nc3ccc(C(C)C)cc3)cc2)c1 [Example 50, 5-methyl-4′-[(1-{[4-(propan-2-yl)phenyl]carbamoyl}-D-prolyl)amino][1,1′-biphenyl]-3-carboxylic acid] |
| 280 | CC(C)c1ccc(NC(=O)N2CCC[C@@H]2C(=O)Nc2ccc(-c3ccc(O)cc3F)cc2)cc1 [Example 51, (2R)-N^2-(2′-fluoro-4′-hydroxy[1,1′-biphenyl]-4-yl)-N^1-[4-(propan-2-yl)phenyl]pyrrolidine-1,2-dicarboxamide] |
| 120 | Cc1cc(-c2ccc(NC(=O)[C@H]3CCCN3C(=O)Nc3ccc(C(C)C)cc3)cc2)ccc1C(N)=O [Example 52, (2R)-N^2-(4′-carbamoyl-3′-methyl[1,1′-biphenyl]-4-yl)-N^1-[4-(propan-2-yl)phenyl]pyrrolidine-1,2-dicarboxamide] |
| 15 | Cc1cc(-c2ccc(NC(=O)[C@H]3CCCN3C(=O)Nc3ccc(C(C)C)cc3)cc2)cc(C)c1C(=O)O [Example 53, 3,5-dimethyl-4′-[(1-{[4-(propan-2-yl)phenyl]carbamoyl}-D-prolyl)amino][1,1′-biphenyl]-4-carboxylic acid] |

| SMILES | IC50 [nM] |
| --- | --- |
| O=C(O)c1ccc(-c2ccc(NC(=O)[C@H]3CCCN3C(=O)Nc3ccc(C(F)(F)F)cc3)nc2)cc1 [Example 31, 4-{6-[(1-{[4-(Trifluoromethyl)phenyl]carbamoyl}-D-prolyl)amino]pyridin-3-yl}benzoic acid] | 7.8 |
